Reference: US20130302889A1, “Differentiation of Bone Marrow Cells into Neuronal Cells and Uses Therefor” (Philadelphia Health and Education Corporation, priority 2002, published 2013)
“Also recorded” adds a separate entry of the source.

What was measured:
[1] = test system: rMSCs; test: Neuronal differentiation of rMSCs (morphology); type: cell-based, rat; details: for neuronal morphologies elicited by anti-oxidant treatment: alone and in combination, time course similar to BME
Procedure: Rat MSCs were originally cultured in alpha-Modified Eagle's Medium (alpha-MEM) supplemented with 20% FBS, 2 mM L-glutamine, 100 units per milliliter penicillin, […] streptomycin and 25 nanogramps per milliliter amphotericin B. For each passage the cells were plated at about 8,000 cells per square centimeter and grown to confluency. At passage 6 the cells were transferred to DMEM (pH 8.0)/20% FBS without additional supplementation, and maintained beyond passage 14. The rat MSCs were obtained with a protocol and procedures approved by the Institutional IACUC. The human samples were obtained from volunteers with informed consent and according to a protocol approved by the Institutional Review Board.
To induce the neuronal phenotype, rMSCs were initially maintained in sub-confluent cultures in media supplemented with 1 mM beta-mercaptoethanol (BME) for 24 hours. […] To effect neuronal differentiation, the cells were transferred to serum-free medium containing 1-10 millimolar BME (SFM/BME). […] Within 60 minutes of exposure to SFM/BME changes in morphology of some of the rMSCs were apparent (FIG. 2C). Responsive cells progressively assumed neuronal morphological characteristics over the first 3 hours. Initially, cytoplasm in the flat rMSCs retracted towards the nucleus, forming a contracted multipolar, cell body, leaving membranous, process-like extensions peripherally (0-90 minutes).
To begin examining the hypothesis that the anti-oxidant properties of BME mediated induction of neuronal differentiation in MSCs, rMSCs were treated with other anti-oxidants, e.g., dimethylsulfoxide (DMSO), butylated hydroxyanisole (BHA), or butylated hydroxytoluene (BHT), ascorbic acid, dimethylfumarate, n-acetylcysteine, and the like, both alone and in combination with each other.

[2] = test system: rMSCs; test: Immunocytochemistry for neuronal markers in treated rMSCs; type: cell-based, rat
Procedure: Cultured rMSCs were fixed with 4% paraformaldehyde, incubated with primary antibody overnight at 4° C., incubated with secondary antibody for one hour, followed by exposure to avidin-biotin complex for one hour at 25° C. Diaminobenzidene (DAB) served as chromogenic substrate for HRP.
To further characterize potential neuronal differentiation, BME-treated cultures were stained to detect expression of the neuronal marker neuron-specific enolase (NSE). Unresponsive, flat rMSCs expressed very low, but detectable, levels of NSE protein, consistent with previous detection of minute amounts of protein and/or message in cells of bone marrow origin (Pechumer et al., 1993, Lab. Invest. 89:743-749; Reid et al., 1991, Clin. Pathol. 44:483-486; vanObberghen et al., 1988, J. Neurosci. Res. 19:450-456).

[3] = test system: rMSC clones; test: Differentiation of clonal rMSC lines; type: cell-based, rat; details: after BME treatment
Procedure: To establish clones, rMSCs were plated at approximately 10 cells per square centimeters, grown to 50-150 cells per colony, isolated with cloning cylinders, transferred to separate wells and eventually to individual flasks.

[4] = test system: rMSCs; test: Western blot for NSE in rMSC cultures; type: cell-based, rat; details: 5 hours post BME treatment, versus uninduced rMSCs
Procedure: […] of protein extract from untreated (U) and BME-induced (I) rMSC cultures was separated on a 4%-20% gradient acrylamide gel and electrophoretically transferred to a nylon membrane. The Western blot was probed for tubulin, expression using an anti-tubulin monoclonal antibody (Sigma Chemical Co., St. Louis, Mo.) followed by secondary antibody conjugated with horse radish peroxidase (HRP). Color development was performed using enhanced chemiluminescence reagents (Amersham, Piscataway, N.J.). The blot was then stripped and probed for NSE expression using anti-NSE polyclonal antibody (ICN). Again, the secondary antibodies were HRP-conjugated, and color was developed using ECL reagents, […]

[5] = test system: hMSCs; test: Neuronal differentiation of human MSCs; type: cell-based
Procedure: Cells from passage two were subjected to the neuronal differentiation protocol and stained for NSE or NF-M expression. […] Contracted cell bodies elaborated processes and stained strongly for NSE expression within 3 hours (FIGS. 8A and 8B). Transitional cells were also evident ( ? ). […] Growth cone morphologies with filopodial extensions ( ? ) were clearly evident on the processes elaborated by paired neurons depicted in the image in FIG. 8C.

Question: Which “neuronal morphologies elicited by anti-oxidant treatment” value (“neuronal morphologies elicited” for short) [1] does the source give for `COc1ccc(O)c(C(C)(C)C)c1` [BHA, butylated hydroxyanisole] here?
Answer: The value was “elicited neuronal morphologies”.

Question: For `Cc1cc(C(C)(C)C)c(O)c(C(C)(C)C)c1` [BHT, butylated hydroxytoluene], which “neuronal morphologies elicited” value [1] is on record?
Answer: Its value is “elicited neuronal morphologies”.

Question: How did the “NSE expression (immunostaining)” value ([2]; BME-treated cultures) turn out when `OCCS` [BME, beta-mercaptoethanol] was run?
Answer: Its value is “increased expression of NSE”.

Question: And the “time to increased expression of neuronal marker NSE” value ([2]; after treatment)?
Answer: The value was ≤ 30 min.

Question: And the “NF-M expression (immunostaining)” value ([2]; cells exhibiting neuronal morphologies)?
Answer: Its value is “increased expression of NF-M”.

Question: What about the “NeuN expression (immunostaining)” value ([2]; differentiated cultures) of the same compound?
Answer: The value was “stained for NeuN expression”.

Question: What about the “percentage of cells adopting a neuronal morphology” value ([1]; SFM with 1-10 millimolar BME, effect of concentration) of the same compound?
Answer: Its value is “increased at higher BME concentrations”.

Question: And the “percentage of cells adopting a neuronal morphology” value ([1]; effect of BME pretreatment)?
Answer: The value was “enhanced by BME pretreatment”.

Question: What about the “time to apparent changes in morphology” value ([1]; serum-free medium containing 1-10 millimolar BME (SFM/BME)) of the same compound?
Answer: The value was ≤ 60 minutes.

Question: And the changes in morphology ([1]; sub-confluent cultures, media supplemented with 1 mM BME for 24 hours)?
Answer: The changes in morphology was “no changes in morphology were evident”.

Question: And the “generation of NSE-positive neurons from single-cell clones” value [3]?
Answer: The value was “differentiated into NSE-positive neurons; also recorded: generated refractile, process-bearing, NSE-positive cells”.

Question: What about the “NSE expression (Western blot)” value [4] of the same compound?
Answer: The value was “significant increase in NSE expression”.

Question: And the NF-M expression ([5]; hMSC-derived neurons)?
Answer: Its NF-M expression is “expressed NF-M”.

Question: What about the “neuronal characteristics and NSE expression” value ([5]; hMSCs passage two, after BME treatment) of the same compound?
Answer: The value was “attained neuronal characterises and increased NSE expression”.

Question: And the “time to strong NSE staining” value ([5]; hMSCs, BME treatment)?
Answer: The value was ≤ 3 h.

Question: How did the “neuronal morphologies elicited” value [1] turn out when `C[S+](C)[O-]` [DMSO, dimethylsulfoxide] was run?
Answer: The value was “elicited neuronal morphologies”.

Question: Which “neuronal morphologies elicited” value [1] does the source give for `O=C1O[C@H]([C@@H](O)CO)C(O)=C1O` [ascorbic acid] here?
Answer: The value was “elicited neuronal morphologies”.

Question: For `CC(=O)N[C@@H](CS)C(=O)O` [n-acetylcysteine], which “neuronal morphologies elicited” value [1] is on record?
Answer: The value was “elicited neuronal morphologies”.
